Reference: paper PMC12446476 (Nature Communications, 2025)
Where “and” joins values, the source holds several entries; their conditions need not be identical. Equal values may be shown once.

System: N. gonorrhoeae
Assay: N. gonorrhoeae murine vaginal infection model, efficacy
Format: in vivo, mouse
Settings: BID
Description: The N. gonorrhoeae female mouse vaginal model[45] was performed in accordance with the Guide for Care and Use of Laboratory Animals[75]. Animal rooms were maintained at a temperature range of 20–24 °C and humidity between 30% and 70%, with 12 h light/dark cycles. Ovariectomized BALB/c female mice (5–6 weeks, BioLASCO Taiwan Co., Ltd.) were treated with estradiol (0.23 mg/mouse) two days before infection and on the day of infection. Ovariectomized mice were used to avoid staging mice before treating them with estradiol. Beginning two days prior to infection and maintained until the end of the study, animals were treated twice daily with streptomycin (1.2 mg/mouse) and vancomycin (0.6 mg/mouse) each via intraperitoneal (IP) injection and received trimethoprim sulfate in the drinking water (0.4 mg/mL) to control vaginal microflora. Animals were anesthetised with pentobarbital (80 mg/kg), the vagina was rinsed with 50 mM HEPES (pH 7.4), and then inoculated with N. gonorrhoeae in pre-warmed PBS (0.02 mL/mouse containing ~1 × 10^5 CFU).
Control groups received either a single IP injection of ceftriaxone or 5% dextrose (vehicle) twice daily. Animals were sacrificed via CO2 asphyxiation at either 2 h (baseline), 26 and/or 50 h post-infection. Vaginal lavage was performed twice with 200 µL GC broth containing 0.05% saponin to recover bacteria. Bacterial burden in the lavage fluids was determined by performing 10-fold serial dilutions and plating on chocolate agar plates. Four strains were assessed using the model; ATCC 700825 is naturally streptomycin-resistant, whereas AR Bank0179-15, AR Bank0181-17 and WHO X-07 are derivatives of AR Bank0179, AR Bank0181 and WHO X, respectively, that were engineered for streptomycin resistance for use in the model.

[1] = Data 4, N. gonorrhoeae WHO X-07, ovariectomized BALB/c, 20 mg/kg PO, 24h, individual animals, 20 mg/kg
[2] = Data 4, N. gonorrhoeae WHO X-07, ovariectomized BALB/c, 20 mg/kg PO, 48h, individual animals, 20 mg/kg
[3] = Data 4, N. gonorrhoeae WHO X-07, ovariectomized BALB/c, 30 mg/kg PO, 24h, individual animals, 30 mg/kg
[4] = Data 4, N. gonorrhoeae WHO X-07, ovariectomized BALB/c, 30 mg/kg PO, 48h, individual animals, 30 mg/kg
[5] = Data 4, N. gonorrhoeae WHO X-07, ovariectomized BALB/c, 40 mg/kg PO, 24h, individual animals, 40 mg/kg
[6] = Data 4, N. gonorrhoeae WHO X-07, ovariectomized BALB/c, 40 mg/kg PO, 48h, individual animals, 40 mg/kg
[7] = Data 4, N. gonorrhoeae WHO X-07, ovariectomized BALB/c, 80 mg/kg PO, 24h, individual animals, 80 mg/kg
[8] = Data 4, N. gonorrhoeae WHO X-07, ovariectomized BALB/c, 80 mg/kg PO, 48h, individual animals, 80 mg/kg
[9] = Data 4, N. gonorrhoeae WHO X-07, ovariectomized BALB/c, 160 mg/kg PO, 24h, individual animals, 160 mg/kg
[10] = Data 4, N. gonorrhoeae WHO X-07, ovariectomized BALB/c, 160 mg/kg PO, 48h, individual animals
[11] = N. gonorrhoeae AR Bank0179-15, vaginal lavage, individual mice, Debio 1453P 10 mg/kg PO, 24h
[12] = N. gonorrhoeae AR Bank0179-15, vaginal lavage, individual mice, Debio 1453P 10 mg/kg PO, 48h
[13] = N. gonorrhoeae AR Bank0179-15, vaginal lavage, individual mice, Debio 1453P 20 mg/kg PO, 24h
[14] = N. gonorrhoeae AR Bank0179-15, vaginal lavage, individual mice, Debio 1453P 20 mg/kg PO, 48h
[15] = N. gonorrhoeae AR Bank0179-15, vaginal lavage, individual mice, Debio 1453P 30 mg/kg PO, 24h
[16] = N. gonorrhoeae AR Bank0179-15, vaginal lavage, individual mice, Debio 1453P 30 mg/kg PO, 48h
[17] = N. gonorrhoeae AR Bank0179-15, vaginal lavage, individual mice, Debio 1453P 40 mg/kg PO, 24h
[18] = N. gonorrhoeae AR Bank0179-15, vaginal lavage, individual mice, Debio 1453P 40 mg/kg PO, 48h
[19] = N. gonorrhoeae AR Bank0179-15, vaginal lavage, individual mice, Debio 1453P 80 mg/kg PO, 24h
[20] = N. gonorrhoeae AR Bank0179-15, vaginal lavage, individual mice, Debio 1453P 80 mg/kg PO, 48h
[21] = N. gonorrhoeae AR Bank0181-17, vaginal lavage, individual mice, Debio 1453P 20 mg/kg PO, 24h
[22] = N. gonorrhoeae AR Bank0181-17, vaginal lavage, individual mice, Debio 1453P 30 mg/kg PO, 24h
[23] = N. gonorrhoeae AR Bank0181-17, vaginal lavage, individual mice, Debio 1453P 40 mg/kg PO, 24h
[24] = N. gonorrhoeae AR Bank0181-17, vaginal lavage, individual mice, Debio 1453P 80 mg/kg PO, 24h
[25] = N. gonorrhoeae ATCC 700825, vaginal lavage, individual mice, Debio 1453P 10 mg/kg PO, 24h
[26] = N. gonorrhoeae ATCC 700825, vaginal lavage, individual mice, Debio 1453P 20 mg/kg PO, 24h

## Cc1c(CN(C)C(=O)/C=C/c2cnc3c(c2)N[C@H](C)[C@H](OP(=O)([O-])[O-])C(=O)N3)oc2ccccc12.[Na+].[Na+] [Debio 1453 P]
[1]
  CFU/mL lavage fluid: 780000 CFU/mL lavage fluid and 510000 CFU/mL lavage fluid and 2110000 CFU/mL lavage fluid and 820000 CFU/mL lavage fluid and 1010000 CFU/mL lavage fluid
  Log10(CFU/mL lavage fluid): 5.89 Log10(CFU/mL lavage fluid) and 5.71 Log10(CFU/mL lavage fluid) and 6.32 Log10(CFU/mL lavage fluid) and 5.91 Log10(CFU/mL lavage fluid) and 6.00 Log10(CFU/mL lavage fluid)
[2]
  CFU/mL lavage fluid: 2660000 CFU/mL lavage fluid and 620000 CFU/mL lavage fluid and 3200000 CFU/mL lavage fluid and 920000 CFU/mL lavage fluid and 870000 CFU/mL lavage fluid
  Log10(CFU/mL lavage fluid): 6.42 Log10(CFU/mL lavage fluid) and 5.79 Log10(CFU/mL lavage fluid) and 6.51 Log10(CFU/mL lavage fluid) and 5.96 Log10(CFU/mL lavage fluid) and 5.94 Log10(CFU/mL lavage fluid)
[3]
  CFU/mL lavage fluid: 740000 CFU/mL lavage fluid and 760000 CFU/mL lavage fluid and 840000 CFU/mL lavage fluid and 440000 CFU/mL lavage fluid and 700000 CFU/mL lavage fluid
  Log10(CFU/mL lavage fluid): 5.87 Log10(CFU/mL lavage fluid) and 5.88 Log10(CFU/mL lavage fluid) and 5.92 Log10(CFU/mL lavage fluid) and 5.64 Log10(CFU/mL lavage fluid) and 5.85 Log10(CFU/mL lavage fluid)
[4]
  CFU/mL lavage fluid: 790000 CFU/mL lavage fluid and 1090000 CFU/mL lavage fluid and 46000 CFU/mL lavage fluid and 550000 CFU/mL lavage fluid and 1250000 CFU/mL lavage fluid
  Log10(CFU/mL lavage fluid): 5.90 Log10(CFU/mL lavage fluid) and 6.04 Log10(CFU/mL lavage fluid) and 4.66 Log10(CFU/mL lavage fluid) and 5.74 Log10(CFU/mL lavage fluid) and 6.10 Log10(CFU/mL lavage fluid)
[5]
  CFU/mL lavage fluid: 2240000 CFU/mL lavage fluid and 380000 CFU/mL lavage fluid and 92000 CFU/mL lavage fluid and 77000 CFU/mL lavage fluid and 610000 CFU/mL lavage fluid
  Log10(CFU/mL lavage fluid): 6.35 Log10(CFU/mL lavage fluid) and 5.58 Log10(CFU/mL lavage fluid) and 4.96 Log10(CFU/mL lavage fluid) and 4.89 Log10(CFU/mL lavage fluid) and 5.79 Log10(CFU/mL lavage fluid)
[6]
  CFU/mL lavage fluid: 123000 CFU/mL lavage fluid and 55000 CFU/mL lavage fluid and 380000 CFU/mL lavage fluid and 85000 CFU/mL lavage fluid and 1000000 CFU/mL lavage fluid
  Log10(CFU/mL lavage fluid): 5.09 Log10(CFU/mL lavage fluid) and 4.74 Log10(CFU/mL lavage fluid) and 5.58 Log10(CFU/mL lavage fluid) and 4.93 Log10(CFU/mL lavage fluid) and 6.00 Log10(CFU/mL lavage fluid)
[7]
  CFU/mL lavage fluid: 5 CFU/mL lavage fluid and 295 CFU/mL lavage fluid and 380 CFU/mL lavage fluid and 10 CFU/mL lavage fluid
  Log10(CFU/mL lavage fluid): 0.70 Log10(CFU/mL lavage fluid) and 2.47 Log10(CFU/mL lavage fluid) and 2.58 Log10(CFU/mL lavage fluid) and 1.00 Log10(CFU/mL lavage fluid)
[8]
  CFU/mL lavage fluid: 55 CFU/mL lavage fluid and <5 CFU/mL lavage fluid and 5 CFU/mL lavage fluid
  Log10(CFU/mL lavage fluid): 1.74 Log10(CFU/mL lavage fluid) and <0.70 Log10(CFU/mL lavage fluid) and 0.70 Log10(CFU/mL lavage fluid)
[9]
  CFU/mL lavage fluid: <5 CFU/mL lavage fluid and 30 CFU/mL lavage fluid and 5 CFU/mL lavage fluid
  Log10(CFU/mL lavage fluid): <0.70 Log10(CFU/mL lavage fluid) and 1.48 Log10(CFU/mL lavage fluid) and 0.70 Log10(CFU/mL lavage fluid)
[10]
  CFU/mL lavage fluid: <5 CFU/mL lavage fluid
  Log10(CFU/mL lavage fluid): <0.70 Log10(CFU/mL lavage fluid)
[11]
  CFU/mL lavage fluid: 390000 CFU/mL and 85000 CFU/mL and 46000 CFU/mL and 59000 CFU/mL and 77000 CFU/mL
  Log10(CFU/mL lavage fluid): 5.59 Log10(CFU/mL lavage fluid) and 4.93 Log10(CFU/mL lavage fluid) and 4.66 Log10(CFU/mL lavage fluid) and 4.77 Log10(CFU/mL lavage fluid) and 4.89 Log10(CFU/mL lavage fluid)
[12]
  CFU/mL lavage fluid: 64000 CFU/mL and 520000 CFU/mL and 61000 CFU/mL and 80000 CFU/mL and 103000 CFU/mL
  Log10(CFU/mL lavage fluid): 4.81 Log10(CFU/mL lavage fluid) and 5.72 Log10(CFU/mL lavage fluid) and 4.79 Log10(CFU/mL lavage fluid) and 4.9 Log10(CFU/mL lavage fluid) and 5.01 Log10(CFU/mL lavage fluid)
[13]
  CFU/mL lavage fluid: 47000 CFU/mL and 64000 CFU/mL and 4900 CFU/mL and 1450 CFU/mL and 20400 CFU/mL
  Log10(CFU/mL lavage fluid): 4.67 Log10(CFU/mL lavage fluid) and 4.81 Log10(CFU/mL lavage fluid) and 3.69 Log10(CFU/mL lavage fluid) and 3.16 Log10(CFU/mL lavage fluid) and 4.31 Log10(CFU/mL lavage fluid)
[14]
  CFU/mL lavage fluid: <5 CFU/mL and 21100 CFU/mL and 105 CFU/mL and 6100 CFU/mL
  Log10(CFU/mL lavage fluid): <0.70 Log10(CFU/mL lavage fluid) and 4.32 Log10(CFU/mL lavage fluid) and 2.02 Log10(CFU/mL lavage fluid) and 3.79 Log10(CFU/mL lavage fluid)
[15]
  CFU/mL lavage fluid: <5 CFU/mL and 545 CFU/mL and 85 CFU/mL and 5500 CFU/mL and 125 CFU/mL
  Log10(CFU/mL lavage fluid): <0.70 Log10(CFU/mL lavage fluid) and 2.74 Log10(CFU/mL lavage fluid) and 1.93 Log10(CFU/mL lavage fluid) and 3.74 Log10(CFU/mL lavage fluid) and 2.1 Log10(CFU/mL lavage fluid)
[16]
  CFU/mL lavage fluid: <5 CFU/mL and 205 CFU/mL
  Log10(CFU/mL lavage fluid): <0.70 Log10(CFU/mL lavage fluid) and 2.31 Log10(CFU/mL lavage fluid)
[17]
  CFU/mL lavage fluid: 7600 CFU/mL and <5 CFU/mL and 200 CFU/mL and 115 CFU/mL
  Log10(CFU/mL lavage fluid): 3.88 Log10(CFU/mL lavage fluid) and <0.70 Log10(CFU/mL lavage fluid) and 2.3 Log10(CFU/mL lavage fluid) and 2.06 Log10(CFU/mL lavage fluid)
[18]
  CFU/mL lavage fluid: 65 CFU/mL and <5 CFU/mL
  Log10(CFU/mL lavage fluid): 1.81 Log10(CFU/mL lavage fluid) and <0.70 Log10(CFU/mL lavage fluid)
[19]
  CFU/mL lavage fluid: <5 CFU/mL
  Log10(CFU/mL lavage fluid): <0.70 Log10(CFU/mL lavage fluid)
[20]
  CFU/mL lavage fluid: <5 CFU/mL
  Log10(CFU/mL lavage fluid): <0.70 Log10(CFU/mL lavage fluid)
[21]
  CFU/mL lavage fluid: 1880000 CFU/mL and 790000 CFU/mL and 670000 CFU/mL and 810000 CFU/mL and 720000 CFU/mL
  Log10(CFU/mL lavage fluid): 6.27 Log10(CFU/mL lavage fluid) and 5.9 Log10(CFU/mL lavage fluid) and 5.83 Log10(CFU/mL lavage fluid) and 5.91 Log10(CFU/mL lavage fluid) and 5.86 Log10(CFU/mL lavage fluid)
[22]
  CFU/mL lavage fluid: 380000 CFU/mL and 1120000 CFU/mL and 11300 CFU/mL and 201000 CFU/mL and 620000 CFU/mL
  Log10(CFU/mL lavage fluid): 5.58 Log10(CFU/mL lavage fluid) and 6.05 Log10(CFU/mL lavage fluid) and 4.05 Log10(CFU/mL lavage fluid) and 5.3 Log10(CFU/mL lavage fluid) and 5.79 Log10(CFU/mL lavage fluid)
[23]
  CFU/mL lavage fluid: 11500 CFU/mL and 123000 CFU/mL and 200000 CFU/mL and 830000 CFU/mL and 730000 CFU/mL
  Log10(CFU/mL lavage fluid): 4.06 Log10(CFU/mL lavage fluid) and 5.09 Log10(CFU/mL lavage fluid) and 5.3 Log10(CFU/mL lavage fluid) and 5.92 Log10(CFU/mL lavage fluid) and 5.86 Log10(CFU/mL lavage fluid)
[24]
  CFU/mL lavage fluid: 275 CFU/mL
  Log10(CFU/mL lavage fluid): 2.44 Log10(CFU/mL lavage fluid)
[25]
  CFU/mL lavage fluid: 50000 CFU/mL and 21700 CFU/mL and 23000 CFU/mL and 15500 CFU/mL and 490000 CFU/mL
  Log10(CFU/mL lavage fluid): 4.7 Log10(CFU/mL lavage fluid) and 4.34 Log10(CFU/mL lavage fluid) and 4.36 Log10(CFU/mL lavage fluid) and 4.19 Log10(CFU/mL lavage fluid) and 5.69 Log10(CFU/mL lavage fluid)
[26]
  CFU/mL lavage fluid: 7500 CFU/mL and 5100 CFU/mL and 204000 CFU/mL and 15100 CFU/mL
  Log10(CFU/mL lavage fluid): 3.88 Log10(CFU/mL lavage fluid) and 3.71 Log10(CFU/mL lavage fluid) and 5.31 Log10(CFU/mL lavage fluid) and 4.18 Log10(CFU/mL lavage fluid)
